Reference: PubChem BioAssay (NCI)
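The compound was tested at five concentrations on cells cultured in 96-well plates, with a 48-hour exposure period. TGI: total growth inhibition.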

Columns and labels:
Experiment in all cases: NCI-60 cell line screen, 48 h
ACHN renal = system: ACHN renal
HCC-2998 colon = system: HCC-2998 colon
HCT-116 colon = system: HCT-116 colon
HL-60(TB) leukemia = system: HL-60(TB) leukemia
HS 578T breast = system: HS 578T breast
KM12 colon = system: KM12 colon
MCF7 breast = system: MCF7 breast
MDA-MB-435 = system: MDA-MB-435
MOLT-4 leukemia = system: MOLT-4 leukemia
NCI-H522 lung = system: NCI-H522 lung
NCI/ADR-RES ovarian = system: NCI/ADR-RES ovarian
OVCAR-8 ovarian = system: OVCAR-8 ovarian
SF-295 CNS = system: SF-295 CNS
SNB-75 CNS = system: SNB-75 CNS
UACC-257 melanoma = system: UACC-257 melanoma
UACC-62 melanoma = system: UACC-62 melanoma
A498 renal = system: A498 renal
SK-MEL-2 melanoma = system: SK-MEL-2 melanoma
SK-MEL-5 melanoma = system: SK-MEL-5 melanoma
SK-OV-3 ovarian = system: SK-OV-3 ovarian

O=C(NC1=C(Cl)C(=O)c2ccccc2C1=O)c1ccc(F)cc1
TGI (ACHN renal): 4.85 µM
TGI (HCC-2998 colon): 15.1 µM
TGI (HCT-116 colon): 10.6 µM
TGI (HL-60(TB) leukemia): > 100 µM
TGI (HS 578T breast): 64.7 µM
TGI (KM12 colon): 12.5 µM
TGI (MCF7 breast): 17.1 µM
TGI (MDA-MB-435): 14.2 µM
TGI (MOLT-4 leukemia): 7.13 µM
TGI (NCI-H522 lung): 1.84 µM
TGI (NCI/ADR-RES ovarian): 14.8 µM
TGI (OVCAR-8 ovarian): 19.3 µM
TGI (SF-295 CNS): 13.8 µM
TGI (SNB-75 CNS): 22.1 µM
TGI (UACC-257 melanoma): 7.43 µM
TGI (UACC-62 melanoma): 2.85 µM

C=C(Br)CNC(=O)Nc1ccc(Cl)c(Cl)c1
TGI (A498 renal): 27.3 µM
TGI (ACHN renal): 55 µM
TGI (HCC-2998 colon): 44.7 µM
TGI (HCT-116 colon): 32.7 µM
TGI (HL-60(TB) leukemia): 38.3 µM
TGI (HS 578T breast): 54.3 µM
TGI (KM12 colon): 34.4 µM
TGI (MDA-MB-435): 53.2 µM
TGI (MOLT-4 leukemia): 73.9 µM
TGI (NCI-H522 lung): 57.4 µM
TGI (NCI/ADR-RES ovarian): 43.6 µM
TGI (SF-295 CNS): 67.2 µM
TGI (SK-MEL-2 melanoma): 32.8 µM
TGI (SK-MEL-5 melanoma): 27.1 µM
TGI (SK-OV-3 ovarian): 77 µM
TGI (SNB-75 CNS): 51.5 µM
TGI (UACC-62 melanoma): 49 µM

O=[N+]([O-])c1cccc2nnccc12
TGI (ACHN renal): 30 µM
TGI (HCT-116 colon): 29.4 µM
TGI (HL-60(TB) leukemia): 14.4 µM
TGI (HS 578T breast): > 100 µM
TGI (KM12 colon): > 100 µM
TGI (MCF7 breast): > 100 µM
TGI (MDA-MB-435): 32.5 µM
TGI (MOLT-4 leukemia): > 100 µM
TGI (NCI-H522 lung): 20.6 µM
TGI (NCI/ADR-RES ovarian): > 100 µM
TGI (OVCAR-8 ovarian): > 100 µM
TGI (SF-295 CNS): > 100 µM
TGI (SK-MEL-2 melanoma): > 100 µM
TGI (SK-MEL-5 melanoma): 27 µM
TGI (SK-OV-3 ovarian): > 100 µM
TGI (SNB-75 CNS): > 100 µM
TGI (UACC-257 melanoma): 39.9 µM
TGI (UACC-62 melanoma): 34.2 µM
